Experimental data reported in patent US20110020366A1, “USE OF BENZOPHENONE DERIVATIVE OR SALT THEREOF AND TNF ALPHA INHIBITOR IN COMBINATION AND PHARMACEUTICAL COMPOSITION CONTAINING THE DERIVATIVE OR SALT THEREOF AND THE INHIBITOR” (TOYAMA CHEMICAL CO., LTD., priority 2008, published 2011).

Tested on: Mouse Type II Collagen-Induced Arthritis
Assay: Mouse type II collagen-induced arthritis, arthritis score / inhibition rate
Format: in vivo
Conditions: compound A 30 mg/kg orally once a day for 10 days; DBA/1 J mice; day following the final administration
Procedure: Eight-week-old male DBA/1 J mice (9 or 10 mice per group; Charles River Laboratories Japan) were used. A 2 mg/mL bovine type II collagen dissolved in a 0.1 mol/L acetic acid solution (Koken Co., Ltd.) was mixed with an equal volume of Freund's complete adjuvant (BD Diagnostic Systems) to prepare an emulsion. The emulsion (0.2 mL) was intradermally injected into the hip of each mouse. Twenty-one days after the primary immunization, the same treatment was carried out (secondary sensitization), so that type II collagen arthritis was induced.
Compound A was dissolved in a 2-fold molar amount of sodium hydroxide solution, and a 3-fold weight of polyvinylpyrrolidone was then added to the solution, followed by dilution with distilled water. The concentration of compound A in a compound A (30 mg/kg)-dosing solution was adjusted to be 3 mg/mL. The concentration of compound A in compound A (3 mg/kg)-dosing solution for combined administration was adjusted to be 0.3 mg/mL. Each dosing solution was orally administered to the mice.
The anti-TNFα antibody was dissolved in phosphate buffered saline. The concentration of the anti-TNFα antibody in the anti-TNFα antibody (250 μg/mouse)-dosing solution was adjusted to be 1.25 mg/mL. […]
The knuckle portion and the articulations of wrist and tarsus portions of the four paws of each mouse were evaluated using the following 4 scores. […]

SMILES: O=C(O)CCc1cc(C(=O)c2ccc(OC3CCCC3)cc2O)ccc1OCc1ccc2c(O)noc2c1 [Compound A, 3-(5-(4-(cyclopentyloxy)-2-hydroxybenzoyl)-2-((3-hydroxy-1,2-benzisoxazol-6-yl)methoxy)phenyl)propionic acid]
- Arthritis inhibition rate (%): 23%
